# Measurements from paper PMC2649009 (Journal of medicinal chemistry, 2008).
# Where “and” joins values, the source holds several entries; their conditions need not be identical. Equal values may be shown once.
# Target: T1, human GVIA iPLA2 (Homo sapiens, UniProt O60733)
# T1 sequence (O60733 1-806): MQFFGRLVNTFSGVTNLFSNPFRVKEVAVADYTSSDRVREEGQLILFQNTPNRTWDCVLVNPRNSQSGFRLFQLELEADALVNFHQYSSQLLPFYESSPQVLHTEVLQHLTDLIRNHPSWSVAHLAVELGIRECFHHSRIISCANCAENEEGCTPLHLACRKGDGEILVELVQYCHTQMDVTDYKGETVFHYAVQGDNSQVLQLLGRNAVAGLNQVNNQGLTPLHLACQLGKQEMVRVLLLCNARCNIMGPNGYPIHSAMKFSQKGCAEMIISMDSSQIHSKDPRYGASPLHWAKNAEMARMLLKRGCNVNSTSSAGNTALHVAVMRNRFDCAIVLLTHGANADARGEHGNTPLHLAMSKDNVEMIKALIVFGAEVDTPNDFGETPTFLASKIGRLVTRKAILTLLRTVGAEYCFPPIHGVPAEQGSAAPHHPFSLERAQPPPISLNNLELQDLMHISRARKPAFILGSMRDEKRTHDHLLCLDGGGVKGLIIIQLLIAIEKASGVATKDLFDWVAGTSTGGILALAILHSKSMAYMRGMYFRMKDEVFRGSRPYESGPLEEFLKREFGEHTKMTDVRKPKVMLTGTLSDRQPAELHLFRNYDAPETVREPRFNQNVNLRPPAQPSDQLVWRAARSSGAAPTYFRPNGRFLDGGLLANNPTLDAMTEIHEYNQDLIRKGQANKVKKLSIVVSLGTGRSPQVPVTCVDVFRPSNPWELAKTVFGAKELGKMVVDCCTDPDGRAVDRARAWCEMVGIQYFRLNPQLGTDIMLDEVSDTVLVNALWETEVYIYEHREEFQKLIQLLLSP
# Assay: mixed micelle-based modified Dole assay, GVIA iPLA2 inhibition
# Type: biochemical
# Settings: mole fraction of inhibitor in total substrate interface giving 50% inhibition
row,Structure (SMILES),GVIA iPLA2 XI(50)
1,"CCCCCCCCCCCCCCC(F)C(=O)C(F)(F)F (stereo not shown) [compound 26, 1,1,1,3-Tetrafluoro-heptadecan-2-one]",0.0011 mole fraction
2,"O=C(CCCCc1ccccc1)C(F)(F)C(F)(F)F [10a, 1,1,1,2,2-Pentafluoro-7-phenyl-heptan-3-one]",0.0073 mole fraction and 0.0073 ± 0.0007 mole fraction
3,"CCCCCCOc1ccc(CCC(=O)C(F)(F)C(F)(F)F)cc1 [compound 21, 1,1,1,2,2-Pentafluoro-5-(4-hexyloxy-phenyl)-pentan-3-one]",0.0075 mole fraction
4,"O=C(CCCCCCc1ccccc1)C(F)(F)C(F)(F)F [10c, 1,1,1,2,2-Pentafluoro-9-phenyl-nonan-3-one]",0.0065 mole fraction
5,"O=C(CCCCCCc1ccccc1)C(F)(F)F [12b, 1,1,1-Trifluoro-8-phenyloctan-2-one]",0.0018 mole fraction
6,"CCCCCCOc1ccc(CCC(=O)C(F)(F)F)cc1 [19a, 1,1,1-Trifluoro-4-(4-hexyloxy-phenyl)-butan-2-one]",0.0328 ±0.0035 mole fraction
7,"O=C(CCCCCc1ccccc1)C(F)(F)C(F)(F)F [10b, 1,1,1,2,2-Pentafluoro-8-phenyl-octan-3-one]",0.0065 mole fraction
8,"O=C(CCCCCc1ccccc1)C(F)(F)F [12a, 1,1,1-Trifluoro-7-phenylheptan-2-one]",0.0025 mole fraction
9,"CCCCCCCCCCCCCCCC(=O)C(F)(F)F [compound 6, palmitoyl trifluoromethyl ketone, reference compound]",0.0195 mole fraction

# Same assay, conditions: ratio of XI(50) values, 26 vs 6
row,Structure (SMILES),potency as inhibitor of GVIA iPLA2 relative to trifluoro derivative 6
1,"CCCCCCCCCCCCCCC(F)C(=O)C(F)(F)F (stereo not shown) [compound 26, 1,1,1,3-Tetrafluoro-heptadecan-2-one]",approximately twenty-fold
